Tests used:
[1] = Concentration measurement in brain after oral administration; assay type: in vivo; conditions: ICR mice (male, 7 weeks old), single dose of 5 mg/kg, whole brain, LC/MS/MS
Procedure: Each of the compounds of the present invention shown in Tables 40 and 41 and the compound of Example 2 of JP 2012-229208 A was orally administered to ICR mice (male, 7 weeks old) in a single dose of 5 mg/kg. At 3, 6 and 9 hours after the administration, 1, 3, 6 and 9 hours after the administration, or 1, 3, 6, 9 and 24 hours after the administration, the mice were subjected to perfusion by infusing physiological saline into the heart under inhalational anesthesia with isoflurane, and the whole brain was harvested. Physiological saline was added to the harvested brain in an amount equal to twice the wet weight of the brain and the brain was homogenized. Then, an equal volume of methanol was added thereto, and the mixture was deproteinized. The concentration of each compound in the sample was measured by LC/MS/MS.

[2] = target: Recombinant three-repeat microtubule-binding domain (3R-MBD) of tau protein (Homo sapiens, UniProt P10636); experiment: Determination of tau aggregation inhibitory activity (thioflavin T fluorescence, heparin-induced); assay type: biochemical; conditions: for IC50: 10 μM tau 3R-MBD, 10 μM heparin, 37° C. for 16 hours, thioflavin T; for Emax: 16 h, maximum inhibition at the concentrations used (0.1, 0.3, 1, 3, and 10 μM)
Sequence of Recombinant three-repeat microtubule-binding domain (3R-MBD) of tau protein (P10636 2-758 limits assumed): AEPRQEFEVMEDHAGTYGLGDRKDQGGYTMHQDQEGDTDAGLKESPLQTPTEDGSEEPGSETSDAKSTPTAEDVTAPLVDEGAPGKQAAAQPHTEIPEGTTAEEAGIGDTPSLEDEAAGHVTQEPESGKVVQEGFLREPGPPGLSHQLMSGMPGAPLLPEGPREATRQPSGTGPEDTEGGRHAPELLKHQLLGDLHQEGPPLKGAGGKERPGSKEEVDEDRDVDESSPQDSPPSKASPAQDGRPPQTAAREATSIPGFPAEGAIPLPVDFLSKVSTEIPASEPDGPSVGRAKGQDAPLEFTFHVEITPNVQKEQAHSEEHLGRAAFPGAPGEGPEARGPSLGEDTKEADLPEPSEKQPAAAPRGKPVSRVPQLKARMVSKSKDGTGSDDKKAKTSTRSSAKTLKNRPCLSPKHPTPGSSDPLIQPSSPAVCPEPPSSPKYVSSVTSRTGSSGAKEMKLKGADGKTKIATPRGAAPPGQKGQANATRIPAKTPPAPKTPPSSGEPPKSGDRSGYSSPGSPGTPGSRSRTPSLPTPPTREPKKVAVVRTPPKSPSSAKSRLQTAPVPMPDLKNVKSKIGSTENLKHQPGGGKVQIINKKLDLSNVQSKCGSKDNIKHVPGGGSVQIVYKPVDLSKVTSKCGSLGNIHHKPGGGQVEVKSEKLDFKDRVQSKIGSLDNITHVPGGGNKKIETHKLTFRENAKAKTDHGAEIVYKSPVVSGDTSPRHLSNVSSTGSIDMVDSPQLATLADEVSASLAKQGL
Procedure: Recombinant three-repeat microtubule-binding domain (3R-MBD) of tau protein was expressed in E. coli and was purified and used for the experiment. The purified tau solution was diluted with a 50 mM Tris-HCl buffer (pH 7.6) to a final concentration of 10 μM. The test compounds were prepared using dimethylsulfoxide (hereinafter also referred to as DMSO) at 20-fold of their final concentrations and added to the tau solution so that the DMSO concentration would be 5%. To this solution, heparin was added so that the final concentration would be 10 μM and the plate was left to stand at 37° C. for 16 hours. Thioflavin T was added to the plate so that the concentration would be 10 μM and the fluorescence intensity was measured with a fluorescence plate reader (PerkinElmer, Inc.)(excitation wavelength: 440 nm; fluorescence wavelength: 486 nm). The final concentration of each compound at the time of measurement was set at 0.1, 0.3, 1, 3, and 10 μM. The sample to which only DMSO was added was used as a negative control and its fluorescence intensity was taken as 0% inhibitory activity to determine the 50% inhibitory concentration (IC50) of each compound.

SMILES | AUC0-24 h in brain [1] | IC50 [2] | Emax [2] | AUC0-9 h in brain [1]
CN1CCN(c2ccc(/C=C/c3cc(/C=C/c4ccc5ccn(C)c5c4)[nH]n3)cc2)CC1 [Example 18-2, 1-methyl-6-[(E)-2-[3-[(E)-2-[4-(4-methylpiperazin-1-yl)phenyl]vinyl]-1H-pyrazol-5-yl]vinyl]indole] | 9781 ng · hr/g-tissue |  |  | 
COc1cc(OCc2ccccn2)ccc1/C=C/c1cc(/C=C/c2cccc(C)n2)[nH]n1 [Example 25-2, 2-[(E)-2-[3-[(E)-2-[2-methoxy-4-(2-pyridylmethoxy)phenyl]vinyl]-1H-pyrazol-5-yl]vinyl]-6-methylpyridine] |  | 840 nM |  | 
Cn1ccc2ccc(/C=C/c3cc(/C=C/c4ccc(OCc5ccccn5)cc4)n[nH]3)cc21 [Example 17-2, 1-methyl-6-[(E)-2-[3-[(E)-2-[4-(2-pyridylmethoxy)phenyl]vinyl]-1H-pyrazol-5-yl]vinyl]indole] |  | 650 nM |  | 
COc1cc(OCc2ccccn2)ccc1/C=C/c1cc(/C=C/c2ccnn2C)[nH]n1 [Example 42-2, 2-[[3-methoxy-4-[(E)-2-[5-[(E)-2-(2-methylpyrazol-3-yl)vinyl]-1H-pyrazol-3-yl]vinyl]phenoxy]methyl]pyridine] |  | 830 nM |  | 
COc1cc(OCCN2CCOCC2)ccc1/C=C/c1cc(/C=C/c2ccc3ccn(C)c3c2)[nH]n1 [Example 14-2, 4-[2-[3-methoxy-4-[(E)-2-[5-[(E)-2-(1-methylindol-6-yl)vinyl]-1H-pyrazol-3-yl]vinyl]phenoxy]ethyl]morpholine] | 24639 ng · hr/g-tissue |  |  | 
CN1CCCN(c2ccc(/C=C/c3cc(/C=C/c4ccc5ccn(C)c5c4)[nH]n3)cc2)CC1 [Example 43-2, 1-methyl-6-[(E)-2-[3-[(E)-2-[4-(4-methyl-1,4-diazepan-1-yl)phenyl]vinyl]-1H-pyrazol-5-yl]vinyl]indole] |  |  | 92% | 
C(=C\c1cc(/C=C/c2ccc3cc[nH]c3c2)[nH]n1)/c1cccc(OCCN2CCOCC2)c1 [Example 53-2, 4-[2-[3-[(E)-2-[5-[(E)-2-(1H-indol-6-yl)vinyl]-1H-pyrazol-3-yl]vinyl]phenoxy]ethyl]morpholine] |  | 840 nM |  | 
COc1cc(OCc2ccccn2)ccc1/C=C/c1cc(/C=C/c2ccc(C)n2C)[nH]n1 [Example 23-2, 2-[[4-[(E)-2-[5-[(E)-2-(1,5-dimethylpyrrol-2-yl)vinyl]-1H-pyrazol-3-yl]vinyl]-3-methoxyphenoxy]methyl]pyridine] |  | 590 nM | 92% | 
CN1CCN(c2ccc(/C=C/c3cc(/C=C/c4cccn4C)[nH]n3)cc2)CC1 [Example 27-3, 1-methyl-4-[4-[(E)-2-[5-[(E)-2-(1-methylpyrrol-2-yl)vinyl]-1H-pyrazol-3-yl]vinyl]phenyl]piperazine] | 1302 ng · hr/g-tissue |  | 91% | 
COc1cc(OCc2ccccn2)ccc1/C=C/c1cc(/C=C/c2cccn2C)[nH]n1 [Example 22-2, 2-[[3-methoxy-4-[(E)-2-[5-[(E)-2-(1-methylpyrrol-2-yl)vinyl]-1H-pyrazol-3-yl]vinyl]phenoxy]methyl]pyridine] |  | 660 nM | 90% | 458 ng · hr/g-tissue
COc1cc(OCCN2CCOCC2)ccc1/C=C/c1cc(/C=C/c2cccn2C)[nH]n1 [Example 21-2, 4-[2-[3-methoxy-4-[(E)-2-[5-[(E)-2-(1-methylpyrrol-2-yl)vinyl]-1H-pyrazol-3-yl]vinyl]phenoxy]ethyl]morpholine] |  |  | 89% | 
Cc1cc(OCc2ccccn2)ccc1/C=C/c1cc(/C=C/c2cccn2C)[nH]n1 [Example 32-5, 2-[[3-methyl-4-[(E)-2-[5-[(E)-2-(1-methylpyrrol-2-yl)vinyl]-1H-pyrazol-3-yl]vinyl]phenoxy]methyl]pyridine] |  | 640 nM | 90% | 
Cn1cccc1/C=C/c1cc(/C=C/c2ccc(OCc3ccccn3)cc2)n[nH]1 [Example 20-3, 2-[[4-[(E)-2-[5-[(E)-2-(1-methylpyrrol-2-yl)vinyl]-1H-pyrazol-3-yl]vinyl]phenoxy]methyl]pyridine] | 5306 ng · hr/g-tissue | 550 nM | 89% | 
COc1cc(OCCc2ccccn2)ccc1/C=C/c1cc(/C=C/c2ccc3ccn(C)c3c2)[nH]n1 [Example 44-2, 6-[(E)-2-[3-[(E)-2-[2-methoxy-4-[2-(2-pyridyl)ethoxy]phenyl]vinyl]-1H-pyrazol-5-yl]vinyl]-1-methylindole] |  |  |  | 869 ng · hr/g-tissue
CN1CCCN(c2ccc(/C=C/c3cc(/C=C/c4cccn4C)[nH]n3)cc2)CC1 [Example 28-2, 1-methyl-4-[4-[(E)-2-[5-[(E)-2-(1-methylpyrrol-2-yl)vinyl]-1H-pyrazol-3-yl]vinyl]phenyl]-1,4-diazepane] |  |  | 93% | 
Cn1cccc1/C=C/c1cc(/C=C/c2ccc(OCc3ccccn3)cc2F)n[nH]1 [Example 19-4, 2-[[3-fluoro-4-[(E)-2-[5-[(E)-2-(1-methylpyrrol-2-yl)vinyl]-1H-pyrazol-3-yl]vinyl]phenoxy]methyl]pyridine] | 3499 ng · hr/g-tissue | 510 nM |  | 
Cn1ccc2ccc(/C=C/c3cc(/C=C/c4ccc(OCc5ccccn5)cc4F)n[nH]3)cc21 [Example 16-2, 6-[(E)-2-[3-[(E)-2-[2-fluoro-4-(2-pyridylmethoxy)phenyl]vinyl]-1H-pyrazol-5-yl]vinyl]-1-methyl indole] |  | 600 nM |  | 
